{
  "source": "patent US11806366B2",
  "about": "“Peptides and combination of peptides for use in immunotherapy against epithelial ovarian cancer and other cancers” (Immatics Biotechnologies GmbH, priority 2015, dated 2023)",
  "data": [
    {"system": "CD8 T cells from blood of healthy donors", "assay": "Immunogenicity analysis of HLA class I ligands: aAPC priming of CD8 T cells, MHC-multimer staining", "format": "cell-based, human", "conditions": "immunogenicity of MUC16/CA-125 ligands, HLA allotype as in Table 11", "procedure": "Priming of peptide specific cytotoxic lymphocytes (CTLs) was conducted using an established protocol involving artificial antigen presenting cells (aAPCs) (30). aAPCs consisted of streptavidin-coated polystyrene beads (5.6 μm in diameter; Bangs Laboratories, Fishers, Ind.). […] T cells were isolated from whole blood of healthy donors using a CD8 magnetic cell isolation kit (Miltenyi). One million T-cells per well were cultured in 96 well plates (Corning, Corning, N.Y., USA) and stimulated with the same number of loaded aAPCs in the presence of 5 ng/ml IL-12 (PromoCell, Heidelberg, Germany). T cells were stimulated 3 times in total with weekly stimulation interval. 40 U/ml IL-2 was added 2 days subsequent to each stimulation. T-cell priming was assessed by MHC-multimer staining one week after the last stimulation round.\nFor the applicability of peptide vaccines immunogenicity is a major imperative. In order to evaluate the immunogenic potential of the identified HLA ligands the inventors used a T-cell priming protocol involving artificial antigen presenting cells and T cells isolated from blood of healthy donors. […] This nearly 80% recognition rate verifies the presence of naïve MUC16 recognizing T cells in the human population. Similar results have been obtained for other TOP100 antigens (e.g. IDO1, LGALS1).", "values": [
      {"substance": "2 (STETSTVLY; listed as Homo sapiens) [compound 2]", "positive/tested donors": "0/2"},
      {"substance": "5 (AVTNVRTSI; listed as Homo sapiens) [compound 5]", "positive/tested donors": "1/3"},
      {"substance": "7 (DALVLKTV; listed as Homo sapiens) [compound 7]", "positive/tested donors": "1/3"},
      {"substance": "8 (DPYKATSAV; listed as Homo sapiens) [compound 8]", "positive/tested donors": "3/3"},
      {"substance": "10 (ERSPVIQTL; listed as Homo sapiens) [compound 10]", "positive/tested donors": "1/2"},
      {"substance": "11 (ETILTFHAF; listed as Homo sapiens) [compound 11]", "positive/tested donors": "2/2"},
      {"substance": "12 (EVISSRGTSM; listed as Homo sapiens) [compound 12]", "positive/tested donors": "1/3"},
      {"substance": "13 (EVITSSRTTI; listed as Homo sapiens) [compound 13]", "positive/tested donors": "1/1"},
      {"substance": "14 (EVTSSGRTSI; listed as Homo sapiens) [compound 14]", "positive/tested donors": "2/3"},
      {"substance": "18 (FQRQGQTAL; listed as Homo sapiens) [compound 18]", "positive/tested donors": "1/6"},
      {"substance": "23 (GTSGTPVSK; listed as Homo sapiens) [compound 23]", "positive/tested donors": "0/5"},
      {"substance": "34 (LPHSEITTL; listed as Homo sapiens) [compound 34]", "positive/tested donors": "0/2"},
      {"substance": "48 (SPHPVTALL; listed as Homo sapiens) [compound 48]", "positive/tested donors": "0/1"},
      {"substance": "50 (SPQNLRNTL; listed as Homo sapiens) [compound 50]", "positive/tested donors": "1/1"},
      {"substance": "53 (SPSKAFASL; listed as Homo sapiens) [compound 53]", "positive/tested donors": "2/2"},
      {"substance": "56 (SQGFSHSQM; listed as Homo sapiens) [compound 56]", "positive/tested donors": "4/5"},
      {"substance": "62 (STSQEIHSATK; listed as Homo sapiens) [compound 62]", "positive/tested donors": "2/6"},
      {"substance": "63 (SVLADLVTTK; listed as Homo sapiens) [compound 63]", "positive/tested donors": "0/1"},
      {"substance": "72 (TPGNRAISL; listed as Homo sapiens) [compound 72]", "positive/tested donors": "2/2"},
      {"substance": "77 (VPRSAATTL; listed as Homo sapiens) [compound 77]", "positive/tested donors": "1/2"},
      {"substance": "547 (IITEVITRL; listed as Homo sapiens) [compound 547]", "positive/tested donors": "3/10"},
      {"substance": "548 (KMISAIPTL; listed as Homo sapiens) [compound 548]", "positive/tested donors": "4/6"},
      {"substance": "549 (TYSEKTTLF; listed as Homo sapiens) [compound 549]", "positive/tested donors": "2/2"}
    ]}
  ]
}
